According to PubChem BioAssay (NCI):
Values joined by “and” are separate entries in the source; they are usually repeats but may differ in a detail not shown here. Equal values may be shown once.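 Compound exposure: 48 hours, 5 concentrations, 96-well plates. GI50 = concentration required for 50% inhibition of growth. TGI marks complete inhibition of growth.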

Tests used:
Test in all cases: inhibition of tumour cell growth, NCI panel, 48 h
[1] = system: HS 578T breast
[2] = system: 786-0 renal
[3] = system: MDA-N
[4] = system: HCT-116 colon
[5] = system: RXF 393 renal
[6] = system: NCI-H226 lung
[7] = system: HOP-62 NSCLC
[8] = system: M14 melanoma
[9] = system: UO-31 renal
[10] = system: SF-268 CNS

Compound: O/N=C1/C2CC3CC1(c1ccccc1)CC(/C3=N/O)/C2=N\O (centres undefined)
- TGI [1]: > 100 µM
- TGI [2]: > 100 µM
- TGI [3]: > 100 µM
- TGI [4]: > 100 µM
- TGI [5]: > 100 µM
- TGI [6]: > 100 µM
- TGI [7]: > 100 µM
- TGI [8]: > 100 µM
- TGI [9]: > 100 µM

Compound: Oc1nc(N/N=C/c2ccccc2)[nH]c1/C=C1\C=Nc2ccccc21
- TGI [1]: > 100 µM
- TGI [2]: > 100 µM
- TGI [3]: > 100 µM
- TGI [4]: > 100 µM
- TGI [5]: > 100 µM
- TGI [6]: > 100 µM
- TGI [7]: > 100 µM
- TGI [10]: > 100 µM
- TGI [8]: > 100 µM
- TGI [9]: > 100 µM

Compound: CCOP(=O)(OCC)C1(O)CC(n2cc(C)c(=O)[nH]c2=O)OC1CO (centres undefined)
- TGI [1]: > 100 µM
- TGI [2]: > 100 µM
- TGI [3]: > 100 µM
- TGI [4]: > 100 µM
- TGI [5]: > 100 µM
- TGI [6]: > 100 µM
- TGI [7]: > 100 µM
- TGI [10]: > 100 µM
- TGI [8]: > 100 µM
- TGI [9]: > 100 µM

Compound: C/C=C/[C@H]1O[C@@](O)([C@@H](C)[C@H](O)[C@H](C)[C@H]2OC(=O)/C(OC)=C/C(C)=C/[C@@H](C)[C@@H](O)[C@@H](CC)[C@@H](O)[C@H](C)C/C(C)=C/C=C/[C@@H]2OC)C[C@H](OC2CC(O)C(OC(N)=O)C(C)O2)[C@@H]1C (some centres undefined)
- TGI [1]: 48 µM
- TGI [2]: 15.7 µM
- TGI [4]: 14 µM
- TGI [5]: 37 µM
- TGI [7]: 1.11 µM
- TGI [10]: 25 µM
- TGI [8]: 0.0387 µM

Compound: CCNc1ncnc2c1nnn2CC
- TGI [2]: > 100 µM
- TGI [3]: > 100 µM
- TGI [4]: > 100 µM
- TGI [5]: > 100 µM
- TGI [6]: > 100 µM
- TGI [7]: > 100 µM
- TGI [8]: > 100 µM
- TGI [9]: > 100 µM

Compound: CSc1nc(C#N)c(N)n1C
- TGI [1]: > 100 µM
- TGI [2]: > 100 µM
- TGI [3]: > 100 µM
- TGI [4]: > 100 µM
- TGI [5]: > 100 µM
- TGI [6]: > 100 µM
- TGI [7]: > 100 µM
- TGI [10]: > 100 µM
- TGI [8]: > 100 µM
- TGI [9]: > 100 µM

Compound: COc1ccc2c(-c3ccc(OCCN(C)C)cc3)c(Oc3ccc(Cl)cc3)c(=O)oc2c1
- TGI [1]: > 54.6 µM
- TGI [2]: 6.32 µM
- TGI [3]: 4.39 µM
- TGI [4]: 8.49 µM
- TGI [5]: 12.4 µM
- TGI [6]: > 55.7 µM
- TGI [7]: > 100 µM
- TGI [10]: 32.9 µM
- TGI [8]: 3.23 µM
- TGI [9]: 11.9 µM

Compound: OC(CCN1CCN(CCOC(c2ccccc2)c2ccccc2)CC1)c1ccc(Br)cc1 (centres undefined)
- TGI [1]: 42.8 µM
- TGI [2]: 22.8 µM
- TGI [3]: 22.9 µM
- TGI [4]: 23.3 µM
- TGI [5]: 22.9 µM
- TGI [6]: 37.6 µM
- TGI [7]: 32 µM
- TGI [10]: 30.3 µM
- TGI [8]: 11.2 µM
- TGI [9]: 4.77 µM

Compound: O=C(N/N=C/c1ccc(Cl)cc1)c1cc(I)cc(I)c1O
- TGI [2]: > 100 µM
- TGI [3]: > 100 µM
- TGI [4]: > 100 µM
- TGI [5]: > 100 µM
- TGI [6]: > 100 µM
- TGI [7]: > 100 µM
- TGI [8]: > 100 µM
- TGI [9]: > 100 µM

Compound: Cc1nn(C(=O)c2ccncc2)c2c1C(c1cccc([N+](=O)[O-])c1)SC(N)=N2 (centres undefined)
- TGI [1]: > 10 µM
- TGI [2]: > 10 µM
- TGI [3]: > 10 µM
- TGI [4]: > 10 µM
- TGI [5]: > 10 µM
- TGI [6]: > 10 µM
- TGI [7]: > 10 µM
- TGI [10]: > 10 µM
- TGI [8]: > 10 µM

Compound: CC(C)C(C/C=C1/CC(CO)(COC(=O)C2CCCCC2)OC1=O)C(C)C (centres undefined)
- TGI [1]: 43.5 µM
- TGI [2]: 26.9 µM
- TGI [3]: 38.8 µM
- TGI [4]: 33.9 µM
- TGI [5]: 40.9 µM
- TGI [6]: 48.6 µM
- TGI [7]: 26.9 µM
- TGI [10]: 33.8 µM
- TGI [8]: 38.8 µM
- TGI [9]: 33.1 µM

Compound: COC(=O)/C(=C\c1ccco1)P(=O)(OC)OC
- TGI [1]: > 100 µM
- TGI [2]: > 100 µM
- TGI [3]: > 100 µM
- TGI [4]: > 100 µM
- TGI [5]: > 100 µM
- TGI [6]: > 100 µM
- TGI [7]: 52.7 µM
- TGI [10]: > 100 µM
- TGI [8]: > 100 µM

Compound: Cc1ccc(OCC2OC(n3cnc4c(Cl)ncnc43)CC2Oc2ccc(C)cc2)cc1 (centres undefined)
- TGI [1]: > 59.2 µM and 27.5 µM
- TGI [2]: > 73.4 µM and 51.7 µM
- GI50 [3]: 4.63 µM and 16.6 µM
- TGI [3]: 11.2 µM and 35.7 µM
- GI50 [4]: 2.4 µM and 14.3 µM
- TGI [4]: 7.13 µM and 38.2 µM
- GI50 [5]: 2.85 µM and 10.9 µM
- TGI [5]: 10.6 µM and 37.2 µM
- TGI [6]: 31.7 µM and 44.1 µM
- GI50 [7]: 4.29 µM and 17.5 µM
- TGI [7]: 13 µM and 38 µM
- TGI [10]: 21.8 µM and 26.9 µM
- GI50 [8]: 2.75 µM and 7.3 µM
- TGI [8]: 6.61 µM and 22.6 µM
- GI50 [9]: 8.08 µM and 1.84 µM
- TGI [9]: 15.8 µM and 3.29 µM

Compound: CN(CCc1ccc(Cl)c(Cl)c1)CCN(C)CCN1CCCC1
- TGI [1]: 46.3 µM
- TGI [2]: 21.9 µM
- TGI [3]: 3.74 µM
- TGI [4]: 18.7 µM
- TGI [5]: 26.6 µM
- TGI [6]: 38.5 µM
- TGI [7]: 34.9 µM
- TGI [10]: 29.8 µM
- TGI [8]: 9.88 µM
- TGI [9]: 17.2 µM

Compound: Oc1ccc(Cl)cc1C1=N/C(=N\C/N=C2\N=C(c3cc(Cl)ccc3O)CC(c3ccccc3)N2)NC(c2ccccc2)C1 (centres undefined)
- TGI [2]: > 100 µM
- TGI [3]: > 100 µM
- TGI [4]: > 100 µM
- TGI [5]: > 100 µM
- TGI [6]: > 100 µM
- TGI [7]: > 100 µM
- TGI [10]: > 100 µM
- TGI [8]: > 100 µM
- TGI [9]: > 100 µM

Compound: N=C(N)SCCCN
- TGI [1]: 43.5 µM
- TGI [2]: 66.1 µM
- TGI [3]: 26 µM
- TGI [4]: 30.7 µM
- TGI [5]: 26 µM
- TGI [6]: 66 µM
- TGI [7]: 35.7 µM
- TGI [10]: 79.2 µM
- TGI [8]: 14.2 µM
- TGI [9]: 37.5 µM

Compound: CC(C)(C)OC(=O)NCC(=O)NC1C/C(=N\O)c2sccc21 (centres undefined)
- TGI [1]: > 100 µM
- TGI [3]: > 100 µM
- TGI [4]: > 100 µM
- TGI [5]: > 100 µM
- TGI [6]: > 100 µM
- TGI [7]: > 100 µM
- TGI [10]: > 100 µM
- TGI [8]: > 100 µM
- TGI [9]: > 100 µM

Compound: COc1nc(OC)nc(-c2cccc(F)c2)n1
- TGI [1]: 93.5 µM
- TGI [2]: 63 µM
- TGI [4]: 40.5 µM
- TGI [5]: 35 µM
- TGI [6]: 31.1 µM
- TGI [7]: 45.7 µM
- TGI [10]: 32 µM
- TGI [8]: 36.4 µM
- TGI [9]: 31.8 µM

Compound: CC(=O)O[C@H]1CN(S(=O)(=O)c2ccc(C)cc2)C[C@@H]1C1CCCCC1
- TGI [1]: 37.8 µM
- TGI [3]: > 100 µM
- TGI [6]: 48.9 µM
- TGI [7]: > 100 µM
- TGI [10]: 90.8 µM
- TGI [8]: 37.3 µM
- TGI [9]: > 100 µM

Compound: CC1(C)CCCCCCCCCC(C)(CCCCCCCCCCCCO)C1=O (centres undefined)
- TGI [1]: 38 µM
- TGI [2]: 32.6 µM
- TGI [3]: 33.7 µM
- TGI [4]: 31.7 µM
- TGI [5]: 33.3 µM
- TGI [6]: 22.5 µM
- TGI [7]: 47.5 µM
- TGI [10]: 32 µM
- TGI [9]: 32.1 µM

Compound: COc1cc(C(c2cccc3ccccc23)N2C(=O)CCC2C(=O)NCc2ccccc2)cc(OC)c1OC (centres undefined)
- TGI [1]: > 100 µM
- TGI [2]: > 100 µM
- TGI [3]: > 100 µM
- TGI [4]: > 100 µM
- TGI [5]: > 100 µM
- TGI [6]: > 100 µM
- TGI [7]: > 100 µM
- TGI [10]: > 100 µM
- TGI [8]: > 100 µM
- TGI [9]: > 100 µM
